Test results taken from patent US11944605B2, “Rapamycin analogs and uses thereof” (Janssen Pharmaceutica NV, priority 2018, dated 2024).

Test system: pS6K1 (p-p70 S6 Kinase (Thr389)) in MCF-7 cells
Assay: AlphaLISA Ultra pS6K1 Assay
Assay type: cell-based
Settings: Homo sapiens, 1.5 h; MCF7 cells, 90 min
Procedure: AlphaLISA Ultra pS6K1 Assay
1. Seed MCF-7 cells in Corning 3701 plate and incubate for 20˜24 hour. 12,000˜16,000 cells will be seeded in 36 μL medium per well.
2. Change the culture medium with fresh medium and incubate for another 2 hours.
3. Add 12 μL (4×) compounds into the cell plate by HAMILTON. Final DMSO concentration is 0.5%. Incubate for 90 minutes.
4. Aspirate […] by HAMILTON, 10 μL rest per well.
5. Add 10 μL 2× lysis buffer using HAMILTON; total volume in wells is 20 μL. Allow cells to shake for 30 min. Cover plate by plastic foil and store plate at −80° C. up to analysis.
6. Thaw cell lysate at RT and transfer 10 μL lysate to assay plate (Optiplate-384).
7. Add 5 μL acceptor beads into assay plate and incubation for 2 hours
8. Add 5 μL donor beads and incubation for 2 hours
9. Count the plate by EnSpire Multimode Plate Reader

First: CO[C@@H]1C[C@H](C[C@@H](C)[C@@H]2CC(=O)[C@H](C)/C=C(\C)[C@@H](O)[C@@H](OC)C(=O)[C@H](C)C[C@H](C)/C=C/C=C/C=C(\C)[C@H](OC[C@@H](O)[C@@H](O)[C@H](O)[C@H](O)CO)C[C@@H]3CC[C@@H](C)[C@@](O)(O3)C(=O)C(=O)N3CCCC[C@H]3C(=O)O2)CC[C@H]1O [Compound I-57]
Second: CO[C@@H]1C[C@H](C[C@@H](C)[C@@H]2CC(=O)[C@H](C)/C=C(\C)[C@@H](O)[C@@H](OC)C(=O)[C@H](C)C[C@H](C)/C=C/C=C/C=C(\C)[C@@H](OC[C@@H](O)[C@@H](O)[C@H](O)[C@H](O)CO)C[C@@H]3CC[C@@H](C)[C@@](O)(O3)C(=O)C(=O)N3CCCC[C@H]3C(=O)O2)CC[C@H]1O [Compound I-58]
The IC50 of the first is lower: less than 0.1 nM for the first, 0.1 to 1 nM for the second. The first is the more potent here.

First: CO[C@@H]1C[C@H](C[C@@H](C)[C@@H]2CC(=O)[C@H](C)/C=C(\C)[C@@H](O)[C@@H](OC)C(=O)[C@H](C)C[C@H](C)/C=C/C=C/C=C(\C)C(OC[C@@H](O)[C@@H](O)[C@H](O)[C@H](O)CO)C[C@@H]3CC[C@@H](C)[C@@](O)(O3)C(=O)C(=O)N3CCCC[C@H]3C(=O)O2)CC[C@H]1O (some centres unmarked) [Compound I-63]
Second: CCCCCCOC1C[C@@H]2CC[C@@H](C)[C@@](O)(O2)C(=O)C(=O)N2CCCC[C@H]2C(=O)O[C@H]([C@H](C)C[C@@H]2CC[C@@H](O)[C@H](OC)C2)CC(=O)[C@H](C)/C=C(\C)[C@@H](O)[C@@H](OC)C(=O)[C@H](C)C[C@H](C)/C=C/C=C/C=C/1C (some centres unmarked) [Compound I-103]
The IC50 of the first is higher: no less than 100 nM for the first, 0.1 to 1 nM for the second.

Compared with CO[C@@H]1C[C@H](C[C@@H](C)[C@@H]2CC(=O)[C@H](C)/C=C(\C)[C@@H](O)[C@@H](OC)C(=O)[C@H](C)C[C@H](C)/C=C/C=C/C=C(\C)[C@H](OCCOCC(COCCO)COCCO)C[C@@H]3CC[C@@H](C)[C@@](O)(O3)C(=O)C(=O)N3CCCC[C@H]3C(=O)O2)CC[C@H]1O [Compound I-64], CO[C@@H]1C[C@H](C[C@@H](C)[C@@H]2CC(=O)[C@H](C)/C=C(\C)[C@@H](O)[C@@H](OC)C(=O)[C@H](C)C[C@H](C)/C=C/C=C/C=C(\C)[C@@H](OCCOCC(COCCO)COCCO)C[C@@H]3CC[C@@H](C)[C@@](O)(O3)C(=O)C(=O)N3CCCC[C@H]3C(=O)O2)CC[C@H]1O [Compound I-65] is lower in IC50: 1 to 10 nM for the first, 0.1 to 1 nM for the second.

Compared with CO[C@@H]1C[C@H](C[C@@H](C)[C@@H]2CC(=O)[C@H](C)/C=C(\C)[C@@H](O)[C@@H](OC)C(=O)[C@H](C)C[C@H](C)/C=C/C=C/C=C(\C)[C@H](OCCOCCO)C[C@@H]3CC[C@@H](C)[C@@](O)(O3)C(=O)C(=O)N3CCCC[C@H]3C(=O)O2)CC[C@H]1OCCOCCO [Compound I-66], CO[C@@H]1C[C@H](C[C@@H](C)[C@@H]2CC(=O)[C@H](C)/C=C(\C)[C@@H](O)[C@@H](OC)C(=O)[C@H](C)C[C@H](C)/C=C/C=C/C=C(\C)[C@@H](OCCOCCO)C[C@@H]3CC[C@@H](C)[C@@](O)(O3)C(=O)C(=O)N3CCCC[C@H]3C(=O)O2)CC[C@H]1OCCOCCO [Compound I-67] is lower in IC50: 1 to 10 nM for the first, 0.1 to 1 nM for the second.

CO[C@@H]1C[C@H](C[C@@H](C)[C@@H]2CC(=O)[C@H](C)/C=C(\C)[C@@H](O)[C@@H](OC)C(=O)[C@H](C)C[C@H](C)/C=C/C=C/C=C(\C)[C@H](OCCOCCOCCO)C[C@@H]3CC[C@@H](C)[C@@](O)(O3)C(=O)C(=O)N3CCCC[C@H]3C(=O)O2)CC[C@H]1OCCOCCOCCO [Compound I-72] and CO[C@@H]1C[C@H](C[C@@H](C)[C@@H]2CC(=O)[C@H](C)/C=C(\C)[C@@H](O)[C@@H](OC)C(=O)[C@H](C)C[C@H](C)/C=C/C=C/C=C(\C)[C@@H](OCCOCCOCCO)C[C@@H]3CC[C@@H](C)[C@@](O)(O3)C(=O)C(=O)N3CCCC[C@H]3C(=O)O2)CC[C@H]1OCCOCCOCCO [Compound I-73] fall in the same range of IC50: 1 to 10 nM for the first, 1 to 10 nM for the second.

First: CNC(=O)OCCO[C@@H]1C[C@@H]2CC[C@@H](C)[C@@](O)(O2)C(=O)C(=O)N2CCCC[C@H]2C(=O)O[C@H]([C@H](C)C[C@@H]2CC[C@@H](OCCO)[C@H](OC)C2)CC(=O)[C@H](C)/C=C(\C)[C@@H](O)[C@@H](OC)C(=O)[C@H](C)C[C@H](C)/C=C/C=C/C=C/1C [Compound I-74]
Second: CNC(=O)OCCO[C@H]1C[C@@H]2CC[C@@H](C)[C@@](O)(O2)C(=O)C(=O)N2CCCC[C@H]2C(=O)OC([C@H](C)CC2CC[C@@H](OCCO)[C@H](OC)C2)CC(=O)[C@H](C)/C=C(\C)[C@@H](O)[C@@H](OC)C(=O)[C@H](C)C[C@H](C)/C=C/C=C/C=C/1C (some centres unmarked) [Compound I-75]
The IC50 of the first is higher: 0.1 to 1 nM for the first, less than 0.1 nM for the second. The second is the more potent here.

CO[C@@H]1C[C@H](C[C@@H](C)[C@@H]2CC(=O)[C@H](C)/C=C(\C)[C@@H](O)[C@@H](OC)C(=O)[C@H](C)C[C@H](C)/C=C/C=C/C=C(\C)C(OCCOCCO)C[C@@H]3CC[C@@H](C)[C@@](O)(O3)C(=O)C(=O)N3CCCC[C@H]3C(=O)O2)CC[C@H]1OCCOCCO (some centres unmarked) [Compound I-76] and CO[C@@H]1C[C@H](C[C@@H](C)[C@@H]2CC(=O)[C@H](C)/C=C(\C)[C@@H](O)[C@@H](OC)C(=O)[C@H](C)C[C@H](C)/C=C/C=C/C=C(\C)C(OCCOCCOCCO)C[C@@H]3CC[C@@H](C)[C@@](O)(O3)C(=O)C(=O)N3CCCC[C@H]3C(=O)O2)CC[C@H]1OCCOCCOCCO (some centres unmarked) [Compound I-78] fall in the same range of IC50: 1 to 10 nM for the first, 1 to 10 nM for the second.

Compared with CO[C@@H]1C[C@H](C[C@@H](C)[C@@H]2CC(=O)[C@H](C)/C=C(\C)[C@@H](O)[C@@H](OC)C(=O)[C@H](C)C[C@H](C)/C=C/C=C/C=C(\C)[C@H](OCCOCCOC(F)(F)C(F)(F)F)C[C@@H]3CC[C@@H](C)[C@@](O)(O3)C(=O)C(=O)N3CCCC[C@H]3C(=O)O2)CC[C@H]1OCCO [Compound I-79], CO[C@@H]1C[C@H](C[C@@H](C)[C@@H]2CC(=O)[C@H](C)/C=C(\C)[C@@H](O)[C@@H](OC)C(=O)[C@H](C)C[C@H](C)/C=C/C=C/C=C(\C)[C@@H](OCCOCCOC(F)(F)C(F)(F)F)C[C@@H]3CC[C@@H](C)[C@@](O)(O3)C(=O)C(=O)N3CCCC[C@H]3C(=O)O2)CC[C@H]1OCCO [Compound I-80] is lower in IC50: 1 to 10 nM for the first, 0.1 to 1 nM for the second. The second is the more potent here.

First: CNC(=O)OCCOC1C[C@@H]2CC[C@@H](C)[C@@](O)(O2)C(=O)C(=O)N2CCCC[C@H]2C(=O)O[C@H]([C@H](C)C[C@@H]2CC[C@@H](OCCO)[C@H](OC)C2)CC(=O)[C@H](C)/C=C(\C)[C@@H](O)[C@@H](OC)C(=O)[C@H](C)C[C@H](C)/C=C/C=C/C=C/1C (some centres unmarked) [Compound I-81]
Second: CO[C@@H]1C[C@H](C[C@@H](C)[C@@H]2CC(=O)[C@H](C)/C=C(\C)[C@@H](O)[C@@H](OC)C(=O)[C@H](C)C[C@H](C)/C=C/C=C/C=C(\C)[C@H](OCCOCCOC(F)(F)F)C[C@@H]3CC[C@@H](C)[C@@](O)(O3)C(=O)C(=O)N3CCCC[C@H]3C(=O)O2)CC[C@H]1OCCO [Compound I-82]
The IC50 of the first is higher: 1 to 10 nM for the first, 0.1 to 1 nM for the second.

CO[C@@H]1C[C@H](C[C@@H](C)[C@@H]2CC(=O)[C@H](C)/C=C(\C)[C@@H](O)[C@@H](OC)C(=O)[C@H](C)C[C@H](C)/C=C/C=C/C=C(\C)C(OCCOCCOCC(F)(F)F)C[C@@H]3CC[C@@H](C)[C@@](O)(O3)C(=O)C(=O)N3CCCC[C@H]3C(=O)O2)CC[C@H]1OCCO (some centres unmarked) [Compound I-86] and CO[C@@H]1C[C@H](C[C@@H](C)[C@@H]2CC(=O)[C@H](C)/C=C(\C)[C@@H](O)[C@@H](OC)C(=O)[C@H](C)C[C@H](C)/C=C/C=C/C=C(\C)C(OCCOCCOC(F)(F)F)C[C@@H]3CC[C@@H](C)[C@@](O)(O3)C(=O)C(=O)N3CCCC[C@H]3C(=O)O2)CC[C@H]1OCCO (some centres unmarked) [Compound I-88] cannot be ordered by IC50: less than 0.1 nM for the first, less than 0.1 nM for the second.

Compared with CO[C@@H]1C[C@H](C[C@@H](C)[C@@H]2CC(=O)[C@H](C)/C=C(\C)[C@@H](O)[C@@H](OC)C(=O)[C@H](C)C[C@H](C)/C=C/C=C/C=C(\C)C(OCCOCCOC(F)(F)C(F)(F)F)C[C@@H]3CC[C@@H](C)[C@@](O)(O3)C(=O)C(=O)N3CCCC[C@H]3C(=O)O2)CC[C@H]1OCCO (some centres unmarked) [Compound I-87], COCCOCCO[C@@H]1C[C@@H]2CC[C@@H](C)[C@@](O)(O2)C(=O)C(=O)N2CCCC[C@H]2C(=O)O[C@H]([C@H](C)C[C@@H]2CC[C@@H](OCCOC)[C@H](OC)C2)CC(=O)[C@H](C)/C=C(\C)[C@@H](O)[C@@H](OC)C(=O)[C@H](C)C[C@H](C)/C=C/C=C/C=C/1C [Compound I-89] is higher in IC50: less than 0.1 nM for the first, 1 to 10 nM for the second. The first is the more potent here.

First: CO[C@@H]1C[C@H](C[C@@H](C)[C@@H]2CC(=O)[C@H](C)/C=C(\C)[C@@H](O)[C@@H](OC)C(=O)[C@H](C)C[C@H](C)/C=C/C=C/C=C(\C)C(OCCOCCOCC(F)(F)F)C[C@@H]3CC[C@@H](C)[C@@](O)(O3)C(=O)C(=O)N3CCCC[C@H]3C(=O)O2)CC[C@H]1O (some centres unmarked) [Compound I-91]
Second: CO[C@@H]1C[C@H](C[C@@H](C)[C@@H]2CC(=O)[C@H](C)/C=C(\C)[C@@H](O)[C@@H](OC)C(=O)[C@H](C)C[C@H](C)/C=C/C=C/C=C(\C)C(OCCOCC(COCCO)COCCO)C[C@@H]3CC[C@@H](C)[C@@](O)(O3)C(=O)C(=O)N3CCCC[C@H]3C(=O)O2)CC[C@H]1O (some centres unmarked) [Compound I-100]
The IC50 of the first is lower: less than 0.1 nM for the first, 1 to 10 nM for the second.

First: COCCOCCOC1C[C@@H]2CC[C@@H](C)[C@@](O)(O2)C(=O)C(=O)N2CCCC[C@H]2C(=O)OC([C@H](C)CC2CC[C@@H](OCCOC)[C@H](OC)C2)CC(=O)[C@H](C)/C=C(\C)[C@@H](O)[C@@H](OC)C(=O)[C@H](C)C[C@H](C)/C=C/C=C/C=C/1C (some centres unmarked) [Compound I-92]
Second: CO[C@@H]1C[C@H](C[C@@H](C)[C@@H]2CC(=O)[C@H](C)/C=C(\C)[C@@H](O)[C@@H](OC)C(=O)[C@H](C)C[C@H](C)/C=C/C=C/C=C(\C)C(OCCOCCOCCOCCOCCOCCOCCOCCOCCOCCO)C[C@@H]3CC[C@@H](C)[C@@](O)(O3)C(=O)C(=O)N3CCCC[C@H]3C(=O)O2)CC[C@H]1O (some centres unmarked) [Compound I-98]
The IC50 of the first is lower: 0.1 to 1 nM for the first, 1 to 10 nM for the second. The first is the more potent here.
